Patent publication US20160250285A1, “NEUROPROTECTIVE PEPTIDES” (priority 2013, published 2016)
pIC50: −log10 of the molar value. Like-named read-outs stand apart in the source and are kept apart here. Square brackets hold non-standard residues; d marks the D form.

Assays:
[1] = test system: primary cortical neuronal cultures; assay: In vitro ischemia / oxygen-glucose deprivation (OGD) model, neurons; type: cell-based, rat; conditions: peptide present during in vitro ischemia and at 50% dose after (FIG. 3a)
Protocol: Establishment of cortical cultures was as previously described (Meloni et al. 2001). Briefly, cortical tissue from E18-E19 Sprague-Dawley rats was dissociated in Dulbecco's modified Eagle medium (DMEM; Invitrogen, Australia) supplemented with 1.3 mM L-cysteine, 0.9 mM NaHCOa, 10 units/ml papain (Sigma, USA) and 50 units/ml DNase (Sigma) and washed in cold DMEM/10% horse serum. Neurons were resuspended in Neurobasal (Invitrogen) containing 2% B27 supplement (B27; Invitrogen). Before seeding, 96-well sized glass wells (6 mm diameter, ProTech, Australia) or 96-well plastic plates (ProSciTech, Australia) were coated with poly-D-lysine overnight (50 ml/well: 50 mg/mL; 70-150 K, Sigma). Excess poly-D-lysine solution was then removed and replaced with Neurobasal (containing 2% B27; 4% fetal bovine serum; 1% horse serum; 62.5 mM glutamate; 25 mM 2-mercaptoethanol; and 30 mg/mL streptomycin and 30 mg/mL penicillin). Neurons were plated to obtain ≈10,000 viable neurons for each well on day in vitro 11-12. Neuronal cultures were maintained in a CO2 incubator (5% CO2, 95% air balance, 98% humidity) at 37° C. On day in vitro 4 one third of the culture medium was removed and replaced with fresh Neurobasal/2% B27 containing the mitotic inhibitor, cytosine arabinofuraNOside (1 mM final concentration; Sigma). On day in vitro 8 one half of the culture medium was replaced with Neurobasal/2% B27. Cultures were used on day in vitro 11 or 12 after which time they routinely consist of >97% neurons and 1-3% astrocytes (Meloni et al. 2001).
The in vitro ischemia model used for primary cortical neuronal cultures was performed as previously described (Meloni et at 2011) Briefly, culture media was removed from wells (glass 96-well plate format) and washed with 315 μl of glucose free balanced salt solution (BSS; mM: 116 NaCl, 5.4 KCl, 1.8 CaCl2, 0.8 MgSO4, 1 NaH2PO4; pH 6.9) before the addition of 60 μl BSS containing cell penetrating or control peptides (see Table 1). A non-peptide positive control consisting of the glutamate receptor blockers (5 μM MK801/5 μM 6-cyano-7-nitroquinoxaline: MK801/CNQX) was also included. In vitro ischemia was initiated by placing wells in an anaerobic incubator (Don Whitely Scientific, England; atmosphere of 5% CO2, 10% H2 and 85% argon, 98% humidity) at 37° C. for 55 minutes. Upon removal from the anaerobic incubator, 60 μl of Neurobasal/2% N2 supplement was added to the wells and cultures incubated for a further 24 hours at 37° C. in the CO2 incubator. Control cultures received the same BSS wash procedures and media additions as ischemic treated cultures before incubation at 37° C. in the CO2 incubator.
Control cultures underwent the same BSS wash procedures and media additions as OGD treated cultures.
Twenty-four hours after insult, neuronal cultures were examined by light microscopy for qualitative assessment of neuronal cell viability. Neuronal viability was quantitatively measured by 3-(4,5,dimethyliazol-2-yl)-5-(3-carboxymethoxy-phenyl)-2-(4-sulfophenyl)-2H-tetrazolium salt (MTS) assay (Promega, Australia). The MTS assay measures the cellular conversion of the tetrazolium salt to a water-soluble brown formazan salt, which is detected spectrophotometrically at 490 nm. MTS absorbance data were converted to reflect proportional cell viability relative to both the untreated and treated controls, with the untreated control taken as 100% viability, and presented as mean±SEM. […] Viability data was analysed by ANOVA, followed by post-hoc Fischer's PLSD test, with P<0.05 values considered statistically significant. Four- to six wells were used in all assays.

[2] = test system: intracellular calcium influx in neuronal cultures; assay: Intracellular calcium influx (Fura-2 AM) after glutamic acid; type: cell-based, rat; conditions: peptide 5 μM for 10 min, removed before 100 μM glutamic acid (FIG. 44)
Protocol: Fura-2 AM was used for intracellular calcium assessment. Representative fluorescent Fura-2 AM tracers; fluorescence intensity (FI) of neuronal cultures 30 sec before and following addition (arrow) of glutamic acid (100 μM final concentration). Peptides or glutamate receptor blockers were added to neuronal cultures for 10 min and removed (time 0) before glutamic acid. Values are mean±SE; n=3. Peptide concentration was 5 μM.
Briefly, cortical tissue from E18-E19 Sprague-Dawley rats was dissociated in Dulbecco's modified Eagle medium (DMEM; Invitrogen, Australia) supplemented with 1.3 mM L-cysteine, 0.9 mM NaHCOa, 10 units/ml papain (Sigma, USA) and 50 units/ml DNase (Sigma) and washed in cold DMEM/10% horse serum. Neurons were resuspended in Neurobasal (Invitrogen) containing 2% B27 supplement (B27; Invitrogen). Before seeding, 96-well sized glass wells (6 mm diameter, ProTech, Australia) or 96-well plastic plates (ProSciTech, Australia) were coated with poly-D-lysine overnight (50 ml/well: 50 mg/mL; 70-150 K, Sigma). Excess poly-D-lysine solution was then removed and replaced with Neurobasal (containing 2% B27; 4% fetal bovine serum; 1% horse serum; 62.5 mM glutamate; 25 mM 2-mercaptoethanol; and 30 mg/mL streptomycin and 30 mg/mL penicillin). Neurons were plated to obtain ≈10,000 viable neurons for each well on day in vitro 11-12. Neuronal cultures were maintained in a CO2 incubator (5% CO2, 95% air balance, 98% humidity) at 37° C. On day in vitro 4 one third of the culture medium was removed and replaced with fresh Neurobasal/2% B27 containing the mitotic inhibitor, cytosine arabinofuraNOside (1 mM final concentration; Sigma). On day in vitro 8 one half of the culture medium was replaced with Neurobasal/2% B27. Cultures were used on day in vitro 11 or 12 after which time they routinely consist of >97% neurons and 1-3% astrocytes (Meloni et al. 2001).

[3] = test system: primary cortical neuronal cultures; conditions: values from Meade et al. (2010a,b); read-out: IC50: Glutamic acid model; cited from earlier work
[4] = test system: primary cortical neuronal cultures; conditions: for neuroprotection (neuronal viability): peptide 15 min prior to and during glutamic acid exposure, viability 24 h, MTS; for neuroprotection when added immediately after glutamic acid exposure: 0 min post-insult (FIG. 1d); for neuroprotection when added 15 minutes post-insult: 15 min post-glutamic acid (FIG. 1d)
Protocol: Briefly, cortical tissue from E18-E19 Sprague-Dawley rats was dissociated in Dulbecco's modified Eagle medium (DMEM; Invitrogen, Australia) supplemented with 1.3 mM L-cysteine, 0.9 mM NaHCOa, 10 units/ml papain (Sigma, USA) and 50 units/ml DNase (Sigma) and washed in cold DMEM/10% horse serum. Neurons were resuspended in Neurobasal (Invitrogen) containing 2% B27 supplement (B27; Invitrogen). Before seeding, 96-well sized glass wells (6 mm diameter, ProTech, Australia) or 96-well plastic plates (ProSciTech, Australia) were coated with poly-D-lysine overnight ([…]: 50 mg/mL; 70-150 K, Sigma). […] Neurons were plated to obtain ≈10,000 viable neurons for each well on day in vitro 11-12. […] On day in vitro 4 one third of the culture medium was removed and replaced with fresh Neurobasal/2% B27 containing the mitotic inhibitor, cytosine arabinofuraNOside (1 mM final concentration; Sigma). On day in vitro 8 one half of the culture medium was replaced with Neurobasal/2% B27.
(§1) To induce excitotoxicity, 50 μl of Neurobasal/2% B27 containing glutamic acid (200 μM) or kainic acid (400 μM) or NMDA (200 μM) was added to the culture wells (100 μM glutamic acid, 200 μM kainic acid and NMDA 100 μM final concentration). Cultures were incubated at 37° C. in the CO2 incubator for 5 minutes for glutamic acid, 45 minutes for kainic acid and 10 minutes for NMDA exposure, after which time the media was replaced with 100 μl of 50% Neurobasal/2% N2 supplement (Invitrogen) and 50% balanced salt solution (BSS; see below). Cultures were incubated for a further 24 hours at 37° C. in the CO2 incubator. The untreated controls with or without glutamic acid or kainic acid treatment received the same wash steps and media additions.
Following this step, cultures were treated as described above. Untreated controls with or without glutamic acid exposure received the same wash steps and media additions. In addition, a post-glutamic acid exposure CPP treatment (5 μM) experiment was performed for the R9 peptide and the JNKI-1D-TAT control peptide.
For pre-glutamic acid exposure experiments, neurons were exposed to peptide(s) for a 10 minute period, immediately before or 1, 2, 3, 4 or 5 hours prior to glutamic acid exposure. […] At the relevant peptide pre-treatment time, media was removed and replaced with 100 μl of Neurobasal/2%. […] Following 5-minute glutamic acid exposure, neuronal culture wells were treated as described above. For all experiments untreated controls with or without glutamic acid treatment underwent the same incubation steps and media additions.
Heparin (for injection) was obtained from Pfizer (1000 IU/ml). Two different heparin experiments were performed: 1. Peptides were incubated with heparin (20 IU/ml) in Neurobasal/B27 for 5 minutes at room temperature, before addition to culture wells (50 μl) for 15 minutes at 37° C. in the CO2 incubator. Following the incubation period, media in wells was removed and replaced with 100 μl of Neurobasal/2% B27 containing glutamic acid (100 μM), and subsequently treated as described above; 2. Media in wells was replaced with Neurobasal/2% B27 containing heparin (50 μl; 40 IU/ml) and incubated for 5 minutes at 37° C. in the CO2 incubator. After the incubation period, peptides or glutamate receptor blockers (MK801/CNQX) in Neurobasal/2% B27 (50 μl) were added to the culture wells and cultures incubated for a further 10 minutes at 37° C. in the CO2 incubator. Following the incubation period, media in wells was removed and replaced with 100 μl of Neurobasal/2% B27 containing glutamic acid (100 μM), and subsequently treated as described above. For all experiments, non-heparin treated peptide controls with glutamic acid treatment underwent the same incubation steps and media additions.
Twenty-four hours after insult, neuronal cultures were examined by light microscopy for qualitative assessment of neuronal cell viability.

[5] = test system: primary cortical neuronal cultures; conditions: FIG. 2
Protocol: Establishment of cortical cultures was as previously described (Meloni et al. 2001). Briefly, cortical tissue from E18-E19 Sprague-Dawley rats was dissociated in Dulbecco's modified Eagle medium (DMEM; Invitrogen, Australia) supplemented with 1.3 mM L-cysteine, 0.9 mM NaHCOa, 10 units/ml papain (Sigma, USA) and 50 units/ml DNase (Sigma) and washed in cold DMEM/10% horse serum. Neurons were resuspended in Neurobasal (Invitrogen) containing 2% B27 supplement (B27; Invitrogen). Before seeding, 96-well sized glass wells (6 mm diameter, ProTech, Australia) or 96-well plastic plates (ProSciTech, Australia) were coated with poly-D-lysine overnight ([…]: 50 mg/mL; 70-150 K, Sigma). Excess poly-D-lysine solution was then removed and replaced with Neurobasal (containing 2% B27; 4% fetal bovine serum; 1% horse serum; […] glutamate; […] 2-mercaptoethanol; and […]). Neurons were plated to obtain ≈10,000 viable neurons for each well on day in vitro 11-12. Neuronal cultures were maintained in a CO2 incubator (5% CO2, 95% air balance, 98% humidity) at 37° C. On day in vitro 4 one third of the culture medium was removed and replaced with fresh Neurobasal/2% B27 containing the mitotic inhibitor, cytosine arabinofuraNOside (1 mM final concentration; Sigma). On day in vitro 8 one half of the culture medium was replaced with Neurobasal/2% B27. Cultures were used on day in vitro 11 or 12 after which time they routinely consist of >97% neurons and 1-3% astrocytes (Meloni et al. 2001).
as §1, with “Peptides were added to culture wells (96-well plate format) 15 minutes prior to glutamic acid or kainic acid exposure by removing media and adding 50 μl of Neurobasal/2% 327 containing CPPs, control peptides or MK801/CNQX. To” for “To”
(§2) Twenty-four hours after insult, neuronal cultures were examined by light microscopy for qualitative assessment of neuronal cell viability. Neuronal viability was quantitatively measured by 3-(4,5,dimethyliazol-2-yl)-5-(3-carboxymethoxy-phenyl)-2-(4-sulfophenyl)-2H-tetrazolium salt (MTS) assay (Promega, Australia). The MTS assay measures the cellular conversion of the tetrazolium salt to a water-soluble brown formazan salt, which is detected spectrophotometrically at 490 nm. MTS absorbance data were converted to reflect proportional cell viability relative to both the untreated and treated controls, with the untreated control taken as 100% viability, and presented as mean±SEM. For studies using astrocytes, bEND3, and SH-Y5Y cells, raw MTS data was used to generate graphs. Viability data was analysed by ANOVA, followed by post-hoc Fischer's PLSD test, with P<0.05 values considered statistically significant. Four- to six wells were used in all assays.

[6] = test system: primary cortical neuronal cultures; assay: NMDA excitotoxicity model; type: cell-based, rat; conditions: peptide 15 min before and during NMDA exposure (FIG. 37)
Protocol: Establishment of cortical cultures was as previously described (Meloni et al. 2001). Briefly, cortical tissue from E18-E19 Sprague-Dawley rats was dissociated in Dulbecco's modified Eagle medium (DMEM; Invitrogen, Australia) supplemented with 1.3 mM L-cysteine, 0.9 mM NaHCOa, 10 units/ml papain (Sigma, USA) and 50 units/ml DNase (Sigma) and washed in cold DMEM/10% horse serum. Neurons were resuspended in Neurobasal (Invitrogen) containing 2% B27 supplement (B27; Invitrogen). Before seeding, 96-well sized glass wells (6 mm diameter, ProTech, Australia) or 96-well plastic plates (ProSciTech, Australia) were coated with poly-D-lysine overnight ([…]: 50 mg/mL; 70-150 K, Sigma). […]
as §2, with “For studies using astrocytes, bEND3, and SH-Y5Y cells, raw MTS data was used to generate graphs. Viability data was analysed by ANOVA, followed by post-hoc Fischer's PLSD test, with P<0.05 values considered statistically significant. Four- to six wells were used in all assays.” left out

[7] = test system: primary cortical neuronal cultures; conditions: values from Meade et al. (2010a,b); read-out: IC50: Kainic acid model; cited from earlier work

Row | Substance | neuroprotection [1] | calcium influx after glutamic acid [2] | pIC50 [3] | effect of heparin on neuroprotective action ([4]; heparin 20 IU/ml with peptide or 40 IU/ml on cultures (FIGS. 39, 40)) | neuroprotection (neuronal viability) [4] | neuroprotection [5] | neuroprotection [6] | neuroprotection when added immediately after glutamic acid exposure [4] | neuroprotection when added 15 minutes post-insult [4] | neuroprotection, milder insult ([4]; FIG. 1i, comparison at 0.5 μM and 1 μM) | neuroprotection (neuronal viability) ([4]; listed as TAT-NR29C) | pIC50 [7] | neuroprotection when added immediately after glutamic acid exposure ([4]; listed as JNKI-1 D-TAT) | neuroprotection when added 15 minutes post-insult ([4]; listed as JNKI-1 D-TAT) | neuroprotection (neuronal viability) ([4]; listed as JNKI-1-TATD)
1 | GRKKRRQRRRGGLQGRRRQGYQSIKP [PYC36L-TAT, reference compound] | effective | to varying degrees reduced calcium influx | 5.82 | blocks neuroprotective actions | highly effective | effective | – | – | – | – | – | – | – | – | –
2 | H-GRKKRRQRRR-KLSSIESDV-NH2 (H-GRKKRRQRRRKLSSIESDV-NH2) [NR2B9c-TAT, reference compound] | – | to varying degrees reduced calcium influx | – | – | – | – | low level neuroprotection | did not significantly increase neuronal survival | did not significantly increase neuronal survival | ineffective | ineffective | – | – | – | –
3 | H-tdqsrpvqpflnlttprkprpp-rrrqrrkkrG-NH2 (H-[dT][dD][dQ][dS][dR][dP][dV][dQ][dP][dF][dL][dN][dL][dT][dT][dP][dR][dK][dP][dR][dP][dP][dR][dR][dR][dQ][dR][dR][dK][dK][dR]G-NH2; SMILES CC(C)C[C@@H](NC(=O)[C@@H](Cc1ccccc1)NC(=O)[C@H]1CCCN1C(=O)[C@@H](CCC(N)=O)NC(=O)[C@H](NC(=O)[C@H]1CCCN1C(=O)[C@@H](CCCNC(=N)N)NC(=O)[C@@H](CO)NC(=O)[C@@H](CCC(N)=O)NC(=O)[C@@H](CC(=O)O)NC(=O)[C@H](N)[C@H](C)O)C(C)C)C(=O)N[C@H](CC(N)=O)C(=O)N[C@H](CC(C)C)C(=O)N[C@@H](C(=O)N[C@@H](C(=O)N1CCC[C@@H]1C(=O)N[C@H](CCCNC(=N)N)C(=O)N[C@H](CCCCN)C(=O)N1CCC[C@@H]1C(=O)N[C@H](CCCNC(=N)N)C(=O)N1CCC[C@@H]1C(=O)N1CCC[C@@H]1C(=O)N[C@H](CCCNC(=N)N)C(=O)N[C@H](CCCNC(=N)N)C(=O)N[C@H](CCCNC(=N)N)C(=O)N[C@H](CCC(N)=O)C(=O)N[C@H](CCCNC(=N)N)C(=O)N[C@H](CCCNC(=N)N)C(=O)N[C@H](CCCCN)C(=O)N[C@H](CCCCN)C(=O)N[C@H](CCCNC(=N)N)C(=O)NCC(N)=O)[C@H](C)O)[C@H](C)O) [JNKI-1D-TAT, reference compound] | – | to varying degrees reduced calcium influx | 5.68 | – | highly effective | effective | – | ineffective | ineffective | – | – | 5.19 | did not significantly increase neuronal survival | did not significantly increase neuronal survival | neuroprotective
